One experiment concerns U87-sensitive. Description: Cell viability (SRB or MTT), TMZ-sensitive U87 subclone. The class given is cell-based. Particulars: 72 h, 72 hours post treatment. Here is the method: (§1) The anti-proliferative activity of compound 2 was also assessed in matched TMZ susceptible (D54-S and U87-S) or resistant (D54-R and […]) cell lines (Hong Kong University, Dr Gilberto Leung). […] SRB tended to overestimate cytotoxicity compared to MTT.

In a further experiment the test system is D54-sensitive. Description: Cell viability (SRB or MTT), TMZ-sensitive D54 subclone. Type of experiment: cell-based. Particulars: 72 h, 72 hours post treatment. On the procedure: as §1
The subject of another experiment is OCSC-2 cells. Description: OCSC-2 proliferation after removal of drug pressure (Incucyte confluence). The class given is cell-based, human. Particulars: pre-treated 24 hrs with 0.1, 1 and 10 μg/ml, washed, additional 48 hrs in medium without drug. On the procedure: Given the concept that residual cancer progenitor cells within the tumour post-treatment are responsible for tumour relapse, a critical therapeutic strategy to prolong survival is to eradicate those tumour progenitor cells driving relapse. In vitro studies were conducted to determine whether compound 2 was able to inhibit OCSC proliferation once drug pressure was removed. […] Culture plates were immediately placed in the Incucyte system and imaged every 2 hrs. Growth curves were calculated as a measure of cell confluence using an integrated confluence algorithm as a surrogate for cell number to determine proliferation rate.

The subject of the next experiment is mCherry-labeled OCC2. Briefly: Co-culture fluorescence microscopy, mCherry-labeled OCC2 cells. Type of experiment: cell-based, human. Particulars: 1 μg/ml for 48 hrs, recovery 72 hrs. Here is the method: (§2) GFP-labeled OCSC2 and mCherry-labeled OCC2 cells were established by infecting cells with lentivirus expressing the fluorescent proteins (Craveiro et al. 2013). Co-cultures of GFP+ OCSC2 and mCherry+ OCC2 were treated with 1 μg/ml of compound 2 for 48 hrs and allowed to recover for another 72 hrs. Fluorescence was determined by fluorescence microscopy.

The test system of the next experiment is OCSC1. Briefly: Ovarian cancer stem cell proliferation/cytotoxicity (Incucyte, CellTox), OCSC1. The class given is cell-based. The note with it: Homo sapiens; OCSC-1, duplicate experiments; read-out: concentrations retarding proliferation of ovarian cancer stem cells. Here is the method: The ability of compounds 1 to 14 to inhibit the proliferation of ovarian cancer stem cells was established from patient-derived explants. The laboratory of Dr Gil Mor (Yale University) have identified two types of epithelial ovarian cancer cells: Type I are chemoresistant, CD44+ve epithelial ovarian cancer (EOC) cells and Type II are chemosensitive CD44−ve EOC cells. Ovarian cancer stem cells were prepared as described previously (Alvero et al., 2009). Cell proliferation was assessed using the Incucyte Kinetic Imaging System. The cytotoxic effect of the compounds was assessed concurrently using the CellPlayer cytotoxicity assay using CellTox™ (Promega, Cat#: G8731). Monolayer cells were trypsinised and plated in 96-well plates. After 24 hrs, once the cells have attached, treatment was dispensed in RPMI with 10% FBS. Drug concentrations used were: 0.001, 0.01, 0.1, 1, and 10 μg/ml. An appropriate dilution of CellTox™ reagent (1:1000) was added to each well after adding the test compound. Culture plates were immediately placed in the Incucyte system and imaged every 2 hrs using the “Fluorescence and Phase contrast” option on the Incucyte equipment. Growth curves were calculated as a measure of cell confluence using an integrated confluence algorithm as a surrogate for cell number to determine proliferation rate. The area under the curve calculated from the plot of CsttTox Count/mm^2 over time was then used to calculate the IC50. […] Compounds 6, 9 and 13 were also potent at inhibiting the proliferation of OCSC-2 cells at concentrations […] (Table 4). Compound 2 also elicited a similar effect against F2 cells at log-fold higher concentrations (0.1-1 μg/ml).

Another experiment relates to GFP-labeled OCSC2. Briefly: Co-culture fluorescence microscopy, GFP-labeled OCSC2 stem cells. Type of experiment: cell-based, human. The note with it: 1 μg/ml for 48 hrs, recovery 72 hrs. Here is the method: as §2
A further experiment relates to U87-resistant. Description: Cell viability (SRB or MTT), TMZ-resistant U87 subclone. Type of experiment: cell-based. Particulars: 72 h, 72 hours post treatment. Here is the method:
as §1

Experiment [1] concerns Ovarian cancer stem cell spheroids (OCSC-2). Briefly: Ovarian cancer stem cell spheroid integrity (microscopy). The class given is cell-based, human. Particulars: 24 hrs exposure. Here is the method:
FIG. 9: Compound 2 destroys ovarian cancer stem cell spheroids. OCSC-2 spheroids were established using standard methodology and exposed to increasing concentration of compound 2 over 24 hrs. A, Control; B. 0.1 μg/ml-24 hr; C, 1 μg/ml-24 hr Spheroid structure was assessed by microscopy.
Ovarian cancer stem cell spheroids were obtained from cultures grown under special conditions that selected for cells with self-renewing potential (Alvero et al., 2009). Briefly, CD44+ cells were incubated in a suspension system consisting of a glass tube in continuous rotation to prevent adherence These cells formed clusters in 48 hrs and compact spheroids in 4 days. Spheroids were then exposed to 0.1 and 1 μg/ml of compound 2 and examined microscopically after 24 hrs.

For the next experiment, the system named is D54-resistant. Description: Cell viability (SRB or MTT), TMZ-resistant D54 subclone. Type of experiment: cell-based. Particulars: 72 h, 72 hours post treatment. On the procedure: as §1
A further experiment has as its system F2. Description: Ovarian cancer stem cell proliferation/cytotoxicity (Incucyte, CellTox), F2. The class given is cell-based. The note with it: Homo sapiens. On the procedure: The ability of compounds 1 to 14 to inhibit the proliferation of ovarian cancer stem cells was established from patient-derived explants. The laboratory of Dr Gil Mor (Yale University) have identified two types of epithelial ovarian cancer cells: Type I are chemoresistant, CD44+ve epithelial ovarian cancer (EOC) cells and Type II are chemosensitive CD44−ve EOC cells. Ovarian cancer stem cells were prepared as described previously (Alvero et al., 2009). Cell proliferation was assessed using the Incucyte Kinetic Imaging System. The cytotoxic effect of the compounds was assessed concurrently using the CellPlayer cytotoxicity assay using CellTox™ (Promega, Cat#: G8731). Monolayer cells were trypsinised and plated in 96-well plates. After 24 hrs, once the cells have attached, treatment was dispensed in RPMI with 10% FBS. Drug concentrations used were: 0.001, 0.01, 0.1, 1, and 10 μg/ml. […] Culture plates were immediately placed in the Incucyte system and imaged every 2 hrs using the “Fluorescence and Phase contrast” option on the Incucyte equipment. Growth curves were calculated as a measure of cell confluence using an integrated confluence algorithm as a surrogate for cell number to determine proliferation rate. The area under the curve calculated from the plot of CsttTox Count/mm^2 over time was then used to calculate the IC50. […]

Values after ≈ are worked out from the molar mass of the structure shown. Like-named read-outs stand apart in the source and are kept apart here.

Consider `COc1cc(C2COc3c(ccc(O)c3C)C2c2ccc(O)cc2)cc(OC)c1O` (racemic) [Compound 2, 3-(4-Hydroxy-3,5-dimethoxyphenyl)-4-(4-hydroxyphenyl)-8-methylchroman-7-ol], for which the IC50 was 329 nM in the experiment with U87-sensitive (MTT); 106 nM in the experiment on U87-sensitive (SRB); 271 nM with D54-sensitive (MTT); 90 nM with D54-sensitive (SRB); 0.01 to 0.1 µg/mL (≈ 0.0245 to 0.245 µM) in the experiment on OCSC1; 358 nM in the experiment on U87-resistant (MTT). The IC50 in the experiment on U87-resistant (SRB) was 128 nM; in the experiment on D54-resistant (MTT) it was 215 nM; in the experiment on D54-resistant (SRB) it was 92 nM; in the experiment on F2 (F2, read-out: IC50 Range), 0.1 to 1 µg/mL (≈ 0.245 to 2.45 µM); with F2 (F2 cells, read-out: concentrations retarding proliferation) it was 0.1 to 1 µg/mL (≈ 0.245 to 2.45 µM). The “growth after drug removal” value in the experiment on OCSC-2 cells is “failed to enter logarithmic growth”. Further, the “effect on mCherry-labeled OCC2 cells” value in the experiment with mCherry-labeled OCC2 is “round up and lift off the culture surface”. Moreover, the “GFP-labeled OCSC2 stem cell numbers” value in the experiment on GFP-labeled OCSC2 is on record as “markedly reduced”. Also, in experiment [1] (0.1 μg/ml), the spheroid infrastructure result is “had started to disintegrate”. The spheroid structure result in experiment [1] (1 μg/ml) was “almost totally destroyed”.

The values are drawn from US9701655B2, “Functionalised benzopyran compounds and use thereof” (NOVOGEN LIMITED, priority 2014, dated 2017).
